Key:
ERK1/ERK2 = test: Measurement of Erk occupancy with biotinylated covalent probe I-299 (HT-29); format: cell-based; settings: HT-29 cells
Description: Measurement of Erk Occupancy with Biotinylated Covalent Probe
This experiment measured occupancy of the ERK1/ERK2 target by compounds according to the invention. This experiment was conducted using the Mesoscale Discovery test kit (Cat. # N45107B). One day before the assay, cells were split and added at 50,000 cells per well to a flat-bottom 96 well plate in 200 μl of growth medium. The next day, the medium was discarded, 100 μl medium containing test compound was added, and the plate was incubated at 37° C. for 120 minutes. The plate was rinsed once with PBS, and 50 μl lysis buffer with test compound was added. The plate was incubated at 4° C. for 30 min, and 30 μl of lysate was transferred to a plate to capture total and phosphor-Erk. Biotinylated probe 1-299 was diluted in lysis buffer and added to each well to a final concentration of 0.2 μM. The plate was incubated for 2 hr under constant shaking at room temperature. The plate was washed 3 times with MSD wash buffer. To detect the biotinylated probe bonding, tagged streptavidin was added (Mesoscale Discovery, Cat. # R32AD-1) at 1 μg/ml, 25 μl/well, followed by a 60 min incubation under shaking. The plate was washed 3 times, 150 μl MSD Read Buffer (Mesoscale Discovery, Cat. R61TX) was added and the plate was read in a plate reader manufactured by MSD. Percent occupancy by test compound at Erk was calculated by comparing the chemiluminescence readings from treated cells as compared to the chemiluminescence readings in untreated controls (which are defined as 100% probe bonding or 0% test compound occupancy). The amount of covalent probe signal divided by the amount of ERK signal for samples with no test compound treatment represents the maximum probe signal (MPS). In samples treated with test compound prior to covalent probe, the ratio of probe signal to ERK signal (the test probe signal, TPS) was reduced by the degree of target occupancy by the test compound which blocks covalent probe binding. The difference between the MPS and the TPS, divided by the MPS gave the target occupancy by the test compound. This ratio was then expressed as a percent occupancy. Results from this assay are provided in Table A below under the column “Occupancy EC50 (nM) HT-29.”

[1] = tested on: HCT116 cells (colorectal carcinoma); test: Inhibition of cancer cell proliferation, HCT116 (CellTiterGlo, 72 hours); format: cell-based; settings: Homo sapiens, HCT-116
Method in brief: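 3000 cells per well exposed to 3-fold serial compound dilutions from 5,000 nM (two-fold solution, stock level) for 72 hours at 37° C. CellTiterGlo luminescence converted to cell number via a standard curve; percent inhibition vs untreated wells, GI50 by curve fit.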

## C=CC(=O)Nc1ccccc1Nc1nc(Nc2cc(C(N)=O)ccc2C)ncc1C(F)(F)F [Compound I-68, 3-(4-(2-Acrylamidophenylamino)-5-(trifluoromethyl)pyrimidin-2-ylamino)-4-methylbenzamide]
ERK1/ERK2
  EC50: < 100 nM
[1]
  GI50: < 100 nM
